# Data published in patent publication US20250269018A1, “COMBINED CANCER THERAPY WITH AN EPITHELIAL CELL ADHESION MOLECULE (EPCAM) INHIBITOR AND A HEPATOCYTE GROWTH FACTOR RECEPTOR (HGFR) INHIBITOR” (ACADEMIA SINICA, priority 2021, published 2025).
# Columns and labels:
# ADAM17 and presenilin 2 = experiment: Western blotting of RIP proteins ADAM17 and presenilin 2 in HCT116 cells; type: cell-based, human; details: 10 μg/ml 16 h, then EpEX-His 50 nM 15 min, FIG. 7E
# Procedure: FIGS. 7A to 7G. EpAb2-6 binds EpEX and induces apoptosis by F(ab′)2 and inhibits regulated intramembrane proteolysis (RIP) activation and HGFR signaling. (FIG. 7A) Binding affinity of IgG EpAb2-6 (mouse) and F(ab′)2 to EpEX-His (1 μg/ml) coated overnight was checked using ELISA (OD450). (FIG. 7B) HCT116 cells were treated with 100 μg/ml control IgG, Fc, or F(ab′)2 of EpAb2-6 for 24 h. The apoptotic and necrotic cells were quantified by fluorescein annexin V-FITC/PI double labeling. (FIG. 7C) HCT116 and HT29 cells were treated with 10 μg/ml control IgG, MT201, humanized EpAb2-6 (hEpAb2-6) or mouse hybridoma EbAb2-6 (mEpAb2-6) for 24 h. The apoptotic and necrotic cells were quantified by fluorescein annexin V-FITC/PI double labeling. (FIG. 7D) HCT116 cells were treated with 10 μg/ml control IgG, MT201, hEpAb2-6 or mEpAb2-6 for 16 h, followed by treatment with EpEX-His (50 nM) for 15 min. Levels of phosphorylated HGFR, AKT, and ERK, and (FIG. 7E) RIP proteins ADAM17 and presenilin 2 were examined by Western blotting. Anti-EpCAM antibody and crizotinib coordinately induces apoptosis in colon cancer cells. (FIG. 7F) HCT116 and HT29 cells were treated with 10 μg/ml NMIgG or EpAb2-6 and 4 μM HGFR inhibitor crizotinib for 24 h. The apoptotic and necrotic cells were quantified by fluorescein annexin V-FITC/PI double labeling. […] Cell invasion was assessed by a Transwell assay with matrigel after 24 h.
# Whole cell extracts were prepared with RIPA buffer (50 mM Tris-HCl pH7.4, 1% NP-40, 0.5% Sodium deoxycholate, 0.1% SDS, 150 mM NaCl, 2 mM EDTA, 50 mM NaF). Protein concentrations of the cell lysates were determined by the Bradford assay. […]
# Appropriate horseradish peroxidase-associated secondary antibodies (Millipore) were applied and the membranes were incubated at room temperature (RT) for 1 h. The protein bands were subsequently visualized with chemiluminescence reagents (Millipore) and detected on a BioSpectrum 600 Imaging system (UVP). The protein level was quantified from band intensity using Gel-Pro analyzer 3.1 (Media Cybernetics).
# HCT116 cells = experiment: Apoptosis assay, annexin V-FITC/PI double labeling, HCT116; type: cell-based, human; details: 10 μg/ml 24 h, FIG. 7C
# Procedure: (§1) FIGS. 7A to 7G. EpAb2-6 binds EpEX and induces apoptosis by F(ab′)2 and inhibits regulated intramembrane proteolysis (RIP) activation and HGFR signaling. (FIG. 7A) Binding affinity of IgG EpAb2-6 (mouse) and F(ab′)2 to EpEX-His (1 μg/ml) coated overnight was checked using ELISA (OD450). (FIG. 7B) HCT116 cells were treated with 100 μg/ml control IgG, Fc, or F(ab′)2 of EpAb2-6 for 24 h. The apoptotic and necrotic cells were quantified by fluorescein annexin V-FITC/PI double labeling. (FIG. 7C) HCT116 and HT29 cells were treated with 10 μg/ml control IgG, MT201, humanized EpAb2-6 (hEpAb2-6) or mouse hybridoma EbAb2-6 (mEpAb2-6) for 24 h. The apoptotic and necrotic cells were quantified by fluorescein annexin V-FITC/PI double labeling. (FIG. 7D) HCT116 cells were treated with 10 μg/ml control IgG, MT201, hEpAb2-6 or mEpAb2-6 for 16 h, followed by treatment with EpEX-His (50 nM) for 15 min. Levels of phosphorylated HGFR, AKT, and ERK, and (FIG. 7E) RIP proteins ADAM17 and presenilin 2 were examined by Western blotting. Anti-EpCAM antibody and crizotinib coordinately induces apoptosis in colon cancer cells. (FIG. 7F) HCT116 and HT29 cells were treated with 10 μg/ml NMIgG or EpAb2-6 and 4 μM HGFR inhibitor crizotinib for 24 h. The apoptotic and necrotic cells were quantified by fluorescein annexin V-FITC/PI double labeling. (FIG. 7G) HCT116 and HT29 cells were treated with 10 μg/ml NMIgG or EpAb2-6 and 10 μM HGFR inhibitor crizotinib. Cell invasion was assessed by a Transwell assay with matrigel after 24 h.
# (§2) Cells were seeded and treated with 10 μg/ml mAb or inhibitor for 6 h; an unrelated mouse myeloma immunoglobulin used at appropriate dilution served as the IgG2a (Invitrogen #02-6200) isotype control. Apoptotic cells were detected using Annexin V-FITC and PI, and were analyzed using a flow cytometer (BD Immmunocytometry Systems). Early apoptosis was measured with the Annexin V-FITC Apoptosis Detection kit II (BD Pharmingen). Late apoptotic nuclei were detected with propidium iodide (PI) staining.
# HT29 cells = experiment: Apoptosis assay, annexin V-FITC/PI double labeling, HT29; type: cell-based, human; details: 10 μg/ml 24 h, FIG. 7C
# Procedure: as §1, §2
# EpCAM = experiment: Antibody binding to EpCAM wild-type and mutants expressed in HEK293T cells (immunofluorescence, flow cytometry, cellular ELISA); parameters: species or system human; details: HEK293T; immunofluorescence, flow cytometry, cellular ELISA; FIG. 8E-8G
# Procedure: FIGS. 8A to 8G. EpAb2-6 binds to both EGF-like domain I and II of EpCAM. HEK293T cells were transfected with full length or EGF like-domain deletion mutant EpCAM-V5. Antibody binding was assessed by (FIG. 8A) Western blotting, (FIG. 8B) flow cytometry, and (FIG. 8C) immunofluorescence. (FIG. 8D) EpCAM mutants were constructed with amino acid substitutions in the EGF-I (Y32A) and EGF-II (L94A, Y95A, or D96A) domains. EpCAM wild-type and mutant proteins were expressed in HEK293T cells. Binding of MT201, EpAb2-6 and EpAb23-1 to EpCAM wild-type and mutants were evaluated by (FIG. 8E) immunofluorescence, (FIG. 8F) flow cytometry, and (FIG. 8G) cellular ELISA.
# A previous study identified the binding epitope of EpAb2-6 antibody as the LYD motif in EpCAM, which corresponds to amino acid residues 94-96; in particular, residue 95 (Y95) plays a major role in EpAb2-6 binding (Liao et al., 2015). […] Therefore, we wanted to determine whether the antibody binds to EpCAM at both EGF-like domains of EpEX (FIG. 8A, FIG. 8B, FIG. 8C). To confirm that EpAb2-6 recognizes the LYD motif in EpCAM, we constructed cDNA sequences encoding the first (aa 27-59; EGF-I domain) and second (aa 66-135; EGF-II/TY domain) EGF-like repeats of EpCAM. PCR-based site-directed mutagenesis was then used to introduce mutations into each domain (FIG. 8D). The reactivity of EpAb2-6 antibody toward these EpCAM mutants was evaluated by immunofluorescence (FIG. 8E), flow cytometry (FIG. 8F), and cellular ELISA (FIG. 8G).
Molecule,levels of phosphorylated ADAM17 and presenilin 2 (ADAM17 and presenilin 2),apoptosis (HCT116 cells),apoptosis (HT29 cells),antibody binding to EpCAM with mutations at Y32 (EGF-I domain) or Y95 (EGF-II domain) (EpCAM)
"MT201: human anti-EpCAM antibody, adecatumumab (MT201)",no such effects,did not show such effects,did not show such effects,did not affect
"EpAb2-6: anti-EpCAM neutralizing monoclonal antibody targeting EpEX; VH SEQ ID NO: 15, VL SEQ ID NO: 16 (antibody, listed as Homo sapiens, V domains shown) VH: VKLQESGPELKKPGETVKISCKASGYTFTDYSMHWVKQAPGKGLKWMGWINTETGEPTYADDFKGRFAFSLETSASTAYLQINNLKNEDTATYFCARTAVYWGQGTTVTVSS VL: DIQMTQSPSSLSASLGERVSLTCRASQEISVSLSWLQQEPDGTIKRLIYATSTLDSGVPKRFSGSRSGSDYSLTISSLESEDFVDYYCLQYASYPWTFGGGTKLEIKRADAAPTVS",decreased,inducing apoptosis,inducing apoptosis,marked reductions
